Laboratory results: US20020137162A1, “Antisense oligonucleotide inhibition of specific histone deacetylase isoforms” (priority 2000, published 2002)
d = 2'-deoxy (DNA); m = 2'-O-methyl

Key:
HMEC [1] = experiment: Apoptosis, Cell Death Detection ELISA; type: cell-based, human; settings: fold over non-specific background, TSA at 100 ng/ml
Experimental: (§1) In order to determine the effect of HDAC OSDNs on cell growth and cell death through apoptosis, A549 or T24 cells, MDAmb231 cells, and HMEC cells (ATCC, Manassas, Va.) were treated with HDAC OSDNs as previously described.
(§2) For the apoptosis study, cells were analyzed using the Cell Death Detection ELISA ^PLUSkit (Roche Diagnostic GmBH, Mannheim, Germany) according to the manufacturer's directions. Typically, 10,000 cells were plated in 96-well tissue culture dishes for 2 hours before harvest and lysis. Each sample was analyzed in duplicate. ELISA reading was done using a MR700 plate reader (DYNEX Technology, Ashford, Middlesex, England) at 410 nm. The reference was set at 490 nm.

MDAmb231 [2] = experiment: Apoptosis, Cell Death Detection ELISA; type: cell-based, human; settings: fold over non-specific background, TSA at 100 ng/ml
Experimental: as §1, §2

T24 [3] = experiment: Apoptosis, Cell Death Detection ELISA; type: cell-based, human; settings: fold over non-specific background, TSA at 100 ng/ml
Experimental: as §1, §2

A549 [4] = experiment: Apoptosis, Cell Death Detection ELISA; type: cell-based, human; settings: fold over non-specific background, TSA at 100 ng/ml
Experimental: as §1, §2

MDAmb231 [5] = experiment: Cell growth inhibition, trypan blue cell count; type: cell-based, human; settings: MDAmb231 cancer cells, 50 nM, 72 hours
Experimental: as §1
(§3) Cells were harvested and cell numbers counted by trypan blue exclusion using a hemocytometer. Percentage of inhibition was calculated as (100—AS cell numbers/control cell numbers) %.

T24 [6] = experiment: Cell growth inhibition, trypan blue cell count; type: cell-based, human; settings: T24 cancer cells, 50 nM, 72 hours
Experimental: as §1, §3

A549 [7] = experiment: Cell growth inhibition, trypan blue cell count; type: cell-based, human; settings: A549 cancer cells, 50 nM, 72 hours
Experimental: as §1, §3

p21 protein = experiment: Western blot of p21 protein in A549 cells; type: cell-based, human
Experimental: Experiments were also conducted to examine the affect of HDAC antisense oligonucleotides on HDAC protein expression. In A549 cells, treatment with HDAC-4 antisene oligonucleotides results in a dramatic increase in the level of p21 protein (FIG. 15).

human HDAC-4 = experiment: Antisense ODN screen, HDAC-4 RNA, T24 cells; type: cell-based; settings: 100 nM, 24 hours, Northern blot
Experimental: Seventeen phosphorothioate ODNs containing sequences complementary to the 5′ or 3′ UTR of the human HDAC-4 gene (GenBank Accession No. AB006626) were screened as above. […] HDAC-4 MM1 and MM2 oligonucleotides were created as controls; compared to the antisense oligonucleotides, they each contain a 6-base mismatch.
(§4) Briefly, human A549 and/or T24 human bladder carcinoma cells were seeded in 10 cm tissue culture dishes one day prior to oligonucleotide treatment. The cell lines were obtained from the American Type Culture Collection (ATCC) (Manassas, Va.) and were grown under the recommended culture conditions. Before the addition of the oligonucleotides, cells were washed with PBS (phosphate buffered saline). Next, lipofectin transfection reagent (GIBCO BRL Mississauga, Ontario, Calif.), at a concentration of 6.25 μg/ml, was added to serum free OPTIMEM medium (GIBCO BRL, Rockville, Md.), which was then added to the cells. The oligonucleotides to be screened were then added directly to the cells (i.e., one oligonucleotide per plate of cells). Mismatched oligonucleotides were used as controls. The same concentration of oligonucleotide (e.g., 50 nM) was used per plate of cells for each oligonucleotide tested.
(§5) Cells were harvested, and total RNAs were analyzed by Northern blot analysis. Briefly, total RNA was extracted using RNeasy miniprep columns (QIAGEN). […]

human cancer cells = experiment: Cell growth and apoptosis, summary for cancer cells; type: cell-based; settings: Tables 3 and 4
Experimental: as §1, §2, §3

HDAC-6 protein = experiment: Western blot of HDAC isotype protein expression in A549 cells, HDAC-6; type: cell-based, human; settings: 50 nM, 48 hours
Experimental: OSDN treatment conditions were as previously described.
Cells were lysed in buffer containing 1% Triton X-100, 0.5% sodium deoxycholate, 5 mM EDTA, 25 mM Tris-HC1, pH 7.5, plus protease inhibitors. Total protein was quantified by the protein assay reagent from Bio-Rad (Hercules, Calif.). 100 ug of total protein was analyzed by SDS-PAGE. Next, total protein was transferred onto a PVDF membrane and probed with various HDAC-specific primary antibodies. Rabbit anti-HDAC-1 (H-51), anti-HDAC-2 (H-54) antibodies (Santa Cruz Biotechnologies, Santa Cruz, Calif.) were used at 1:500 dilution. Rabbit anti-HDAC-3 antibody (Sigma, St. Louis, Mo.) was used at a dilution of 1:1000. Anti-HDAC-4 antibody was prepared as previously described (Wang, S. H. et al., (1999) Mol. Cell. Biol. 19:7816-27), and was used at a dilution of 1:1000. Anti-HDAC-6 antibody was raised by immunizing rabbits with a GST fusion protein containing a fragment of HDAC-6 protein (amino acid #990 to #1216, GenBank Accession No. AAD29048). Rabbit antiserum was tested and found only to react specifically to the human HDAC-6 isoform. HDAC-6 antiserum was used at 1:500 dilution in Western blots to detect HDAC-6 in total cell lysates. Horse Radish Peroxidase conjugated secondary antibody was used at a dilution of 1:5000 to detect primary antibody binding. […]

HMEC [8] = experiment: Cell growth inhibition, trypan blue cell count; type: cell-based, human; settings: HMEC normal cells, 50 nM, 72 hours
Experimental: as §1, §3

human HDAC-6 = experiment: Antisense ODN screen, HDAC-6 RNA, T24 cells; type: cell-based; settings: 100 nM, 24 hours, Northern blot
Experimental: Thirteen phosphorothloate ODNs containing sequences complementary to the 5′ or 3′ untranslated regions of the human HDAC-6 gene (GenBank Accession No. AJ011972) were screened as above. […] HDAC-6MM oligo was created as a control; compared to the antisense oligo, it contains a 7-base mismatch.
as §4, §5

A549 cells = experiment: Growth in soft agar, colony count; type: cell-based, human; settings: colonies counted after three weeks
Experimental: 1.3 g granulated agar (DIDFCO) was added to 100 ml deionized water and boiled in a microwave to sterilize. The boiled agar was held at 55 C until further use. Iscove's Modified Dulbecco×s Medium (GIBCO/BRL), 100× Penicillin-Streptomycin-Glutamine (GIBCO/BRL) and fetal bovine serum (medicorp) were pre-warmed at 37 C. To 50 ml sterile tubes was added 9 ml Isove's medium, 2 ml fetal bovine serum and 0.2 ml 100× Pen-Strep-Gln. Then 9 ml 55 C 1.3% agar was added to each tube. The tube contents were mixed immediately, avoiding air bubbles, and 2.5 ml of the mixture was poured into each sterile 6 cm petri dish to form a polymerized bottom layer. Dishes with polymerized bottom layers were then put in a CO2 incubator at 37 C until further use. In 50 ml sterile tubes were prewarmed at 37 C for each 4 cell lines/samples, 20 ml Iscove's medium, 0.4 ml 100× Pen-Strep-Gln and 8 ml fetal bovine serum. Cells were trypsinized and counted by trypan blue staining and 20,000 cells were aliquotted into a sterile 15 ml tube. To the tube was then added DMEM with low glucose (GIBCO/BRL)+10% fetal bovine serum+Pen-Strep-Gln to a final volume of 1 ml. To the prewarmed 37 C mix in the 50 ml tube was quickly added 8 ml 55 C 1.3% agar, which was then mixed well. […] Plates were wrapped up in foil paper and incubated in a CO2 incubator at 37° C. for three weeks, at which time colonies in agar are counted.

Substance	Apoptosis After 48 Hour Treatment (HMEC [1])	Apoptosis After 48 Hour Treatment (MDAmb231 [2])	Apoptosis After 48 Hour Treatment (T24 [3])	Apoptosis After 48 Hour Treatment (A549 [4])	Growth Inhibition (AS vs. MM) (MDAmb231 [5])	Growth Inhibition (AS vs. MM) (T24 [6])	Growth Inhibition (AS vs. MM) (A549 [7])	level of p21 protein (p21 protein)	antisense activity to human HDAC-4 (human HDAC-4)	growth arrest and apoptosis of human cancer cells (human cancer cells)	HDAC-6 protein expression (HDAC-6 protein)	Growth Inhibition (AS vs. MM) (HMEC [8])	antisense activity to human HDAC-6 (human HDAC-6)	growth of A549 cells in soft agar (A549 cells)
5-GCTGCCTGCCGTGCCCACCC-3′ (sugars from the 5' end m4 d12 m4, all phosphorothioate, methylation of C and T or U not given here) [HDAC-4 AS1]	− (“−”: <= 2x fold over non-specific background)	++ (“++”: 3-5X fold)	+ (“+”: 2-3X fold)	+++ (“+++”: 5-8X fold)	++ (“++”: 50-75% inhibition)	++ (“++”: 50-75% inhibition)	+++ (“+++”: >75% inhibition)	induces the expression	antisense activity	–	–	–	–	–
5′-CAGGCTGGAATGAGCTACAG-3′ (chemistry not given here) [HDAC-6 AS]	− (“−”: <= 2x fold over non-specific background)	− (“−”: <= 2x fold over non-specific background)	− (“−”: <= 2x fold over non-specific background)	− (“−”: <= 2x fold over non-specific background)	–	− (“−”: no inhibition)	− (“−”: no inhibition)	–	–	no effect	specifically inhibits	− (“−”: no inhibition)	antisense activity	do not
